Test results from PMC10112881 (Cell reports, 2023).
Like-named read-outs stand apart in the source and are kept apart here.

Key:
α1A = α1A (Homo sapiens, UniProt P35348); test: G protein dissociation BRET assay; assay type: cell-based; settings: read-out: KB (antagonist)
5-HT2B = 5-HT2B (Homo sapiens, UniProt P41595); test: 5-HT2B Gq dissociation, β-arrestin2 recruitment BRET and calcium flux assays
5-HT7a [1] = target: T1, 5-HT7a (Homo sapiens, UniProt P34969); test: G protein dissociation BRET assay; assay type: cell-based
[2] = Pharmacokinetics in plasma and brain of mice; settings: for mean plasma Cmax / Cmax: IP 6.75 mg/kg; for mean terminal T1/2, plasma: range over doses; for Cmax: read-out: mean plasma Cmax
[3] = tested on: rest of the histamine and muscarinic GPCRs; test: G protein dissociation BRET assay; assay type: cell-based, human
5-HT7a [4] = target: T1, 5-HT7a; test: cAMP accumulation GloSensor assay; assay type: cell-based; settings: read-out: EC50 (inverse agonism)
D4 = D4 (Homo sapiens, UniProt P21917); test: G protein dissociation BRET assay; assay type: cell-based
[5] = cited from earlier work
D3 = D3 (Homo sapiens, UniProt P35462); test: G protein dissociation BRET assay; assay type: cell-based; settings: relative to dopamine
hERG (KV11.1) channel = hERG (KV11.1) channel (Homo sapiens, UniProt Q12809); settings: read-out: IC50 (hERG inhibition)
D2 = D2 (Homo sapiens, UniProt P14416); test: G protein dissociation BRET assay; assay type: cell-based
5-HT2A [6] = target: T2, 5-HT2A (Homo sapiens, UniProt P28223); assay type: cell-based; settings: β-arrestin recruitment, normalized to 5-HT
5-HT4 = 5-HT4 (Homo sapiens, UniProt Q13639); test: G protein dissociation BRET assay; assay type: cell-based
β2 = β2 (Homo sapiens, UniProt P07550); test: G protein dissociation BRET assay; assay type: cell-based; settings: read-out: KB (antagonist)
α2C = α2C (Homo sapiens, UniProt P18825); test: G protein dissociation BRET assay; assay type: cell-based
Open field test = assay type: in vivo, C57BL/6J mice; settings: 24 h after
5-HT2A [7] = target: T2, 5-HT2A; assay type: cell-based; settings: Gq dissociation
D1/5 subtypes = test: G protein dissociation BRET assay; assay type: cell-based, human
5-HT5A = 5-HT5A (Homo sapiens, UniProt P47898); test: G protein dissociation BRET assay; assay type: cell-based; settings: read-out: KB (antagonist), 37°C, 60 minutes
[8] = Chronic variable stress: splash test; assay type: in vivo, female mice; settings: 1X 3 mg/kg and 4X 1 mg/kg groups
rat cortical neurons [9] = test: Spinogenesis in cultured cortical neurons; assay type: cell-based; settings: 1 and 10 μM, 3 h at DIV18, read 24 h after onset
HTR induced by DOI = test: Blockade of DOI-induced head-twitch response; settings: DOI 1 mg/kg IP
5-HT2A [10] = target: T2, 5-HT2A; test: NanoBit HiBiT surface expression/internalization assay; assay type: cell-based; settings: 60 minutes of treatment
H2 = H2 (Homo sapiens, UniProt P25021); test: G protein dissociation BRET assay; assay type: cell-based
[11] = tested on: primary rat cortical neurons; test: Cell viability of primary cortical neurons; assay type: cell-based; settings: every tested concentration
Nav1.5 sodium channels = Nav1.5 sodium channels (Homo sapiens, UniProt Q14524); test: Off-target panel: Nav1.5
PFC pyramidal neurons = test: Spine density in prefrontal cortex; settings: 1 mg/kg IP, ~26 h after treatment, both sexes
5-HT6 = 5-HT6 (Homo sapiens, UniProt P50406); test: G protein dissociation BRET assay; assay type: cell-based; settings: read-out: EC50 (partial agonism)
5-HT1A = 5-HT1A (Homo sapiens, UniProt P08908); test: β-arrestin2 recruitment BRET assay; assay type: cell-based
α1B = α1B (Homo sapiens, UniProt P35368); test: G protein dissociation BRET assay; assay type: cell-based; settings: read-out: KB (antagonist)
Forced swim test = assay type: in vivo, C57BL/6J mice; settings: 25 h after
5-HT2C = 5-HT2C (Homo sapiens, UniProt P28335); assay type: cell-based; settings: Gq partial agonism
OCT2 = OCT2 (Homo sapiens, UniProt O15244); test: Transporter panel: OCT2
rat cortical neurons [12] = test: Dendritogenesis; assay type: cell-based
head-twitch response = test: Head-twitch response

T2 sequence (P28223 whole entry): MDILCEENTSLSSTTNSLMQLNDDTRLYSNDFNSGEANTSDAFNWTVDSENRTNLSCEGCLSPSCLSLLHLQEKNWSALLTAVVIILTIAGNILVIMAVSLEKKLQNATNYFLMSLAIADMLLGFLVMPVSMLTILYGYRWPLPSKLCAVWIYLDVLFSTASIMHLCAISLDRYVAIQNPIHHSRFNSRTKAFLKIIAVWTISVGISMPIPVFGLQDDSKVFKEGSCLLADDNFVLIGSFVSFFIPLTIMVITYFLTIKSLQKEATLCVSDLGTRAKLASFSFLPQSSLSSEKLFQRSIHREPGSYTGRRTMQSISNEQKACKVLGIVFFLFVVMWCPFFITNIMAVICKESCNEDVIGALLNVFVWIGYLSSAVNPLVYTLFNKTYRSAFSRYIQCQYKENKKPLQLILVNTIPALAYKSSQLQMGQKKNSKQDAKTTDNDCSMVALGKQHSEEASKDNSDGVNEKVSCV
α2C, sequence (P18825 whole entry): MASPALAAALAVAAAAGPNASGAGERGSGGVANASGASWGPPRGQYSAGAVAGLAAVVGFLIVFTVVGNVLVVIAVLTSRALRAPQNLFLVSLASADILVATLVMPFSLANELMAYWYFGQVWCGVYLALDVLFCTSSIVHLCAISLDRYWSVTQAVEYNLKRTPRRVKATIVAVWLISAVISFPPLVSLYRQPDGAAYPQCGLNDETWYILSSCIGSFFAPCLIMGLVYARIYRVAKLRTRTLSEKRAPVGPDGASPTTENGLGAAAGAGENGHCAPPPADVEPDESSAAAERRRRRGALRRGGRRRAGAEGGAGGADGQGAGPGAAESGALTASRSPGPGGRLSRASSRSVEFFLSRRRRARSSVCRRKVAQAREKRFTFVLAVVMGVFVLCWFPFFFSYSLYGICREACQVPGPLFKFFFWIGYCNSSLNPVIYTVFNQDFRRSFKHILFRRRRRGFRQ
T1 sequence (P34969 1-445 isoform P34969-2): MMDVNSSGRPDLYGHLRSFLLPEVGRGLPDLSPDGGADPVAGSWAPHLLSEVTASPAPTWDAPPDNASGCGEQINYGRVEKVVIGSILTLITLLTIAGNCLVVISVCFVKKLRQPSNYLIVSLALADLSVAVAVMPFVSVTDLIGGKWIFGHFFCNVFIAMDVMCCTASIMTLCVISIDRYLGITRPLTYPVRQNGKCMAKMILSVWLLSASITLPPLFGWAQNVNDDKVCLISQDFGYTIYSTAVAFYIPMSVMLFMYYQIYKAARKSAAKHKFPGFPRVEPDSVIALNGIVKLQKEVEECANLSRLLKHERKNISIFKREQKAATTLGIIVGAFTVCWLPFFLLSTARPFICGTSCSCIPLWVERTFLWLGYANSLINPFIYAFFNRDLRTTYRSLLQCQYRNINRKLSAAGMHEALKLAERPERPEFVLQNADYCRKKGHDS
5-HT2B, sequence (P41595 whole entry): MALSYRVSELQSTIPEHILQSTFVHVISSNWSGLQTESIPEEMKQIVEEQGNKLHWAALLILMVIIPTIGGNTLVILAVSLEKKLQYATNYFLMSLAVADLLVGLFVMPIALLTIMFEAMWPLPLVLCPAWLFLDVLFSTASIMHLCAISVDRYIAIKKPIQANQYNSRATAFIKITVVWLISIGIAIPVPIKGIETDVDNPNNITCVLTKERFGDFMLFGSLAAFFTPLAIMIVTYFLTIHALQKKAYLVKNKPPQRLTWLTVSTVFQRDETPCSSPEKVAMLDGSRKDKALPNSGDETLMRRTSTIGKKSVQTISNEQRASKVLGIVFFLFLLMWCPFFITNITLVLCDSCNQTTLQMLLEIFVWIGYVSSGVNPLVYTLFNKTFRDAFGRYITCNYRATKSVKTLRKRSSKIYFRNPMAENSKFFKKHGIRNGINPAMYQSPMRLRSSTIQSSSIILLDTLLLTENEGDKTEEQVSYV
D4, sequence (P21917 whole entry): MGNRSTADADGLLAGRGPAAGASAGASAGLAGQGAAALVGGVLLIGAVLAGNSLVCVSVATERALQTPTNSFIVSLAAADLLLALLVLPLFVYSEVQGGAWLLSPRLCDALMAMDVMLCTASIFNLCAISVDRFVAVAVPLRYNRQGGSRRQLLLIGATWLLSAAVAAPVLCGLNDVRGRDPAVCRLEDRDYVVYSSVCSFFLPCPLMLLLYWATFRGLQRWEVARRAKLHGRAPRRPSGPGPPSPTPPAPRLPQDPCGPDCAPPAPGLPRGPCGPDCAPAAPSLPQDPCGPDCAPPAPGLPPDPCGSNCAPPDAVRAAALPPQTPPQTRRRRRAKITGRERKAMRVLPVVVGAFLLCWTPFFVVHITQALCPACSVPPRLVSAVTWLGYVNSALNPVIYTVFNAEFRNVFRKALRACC
β2, sequence (P07550 whole entry): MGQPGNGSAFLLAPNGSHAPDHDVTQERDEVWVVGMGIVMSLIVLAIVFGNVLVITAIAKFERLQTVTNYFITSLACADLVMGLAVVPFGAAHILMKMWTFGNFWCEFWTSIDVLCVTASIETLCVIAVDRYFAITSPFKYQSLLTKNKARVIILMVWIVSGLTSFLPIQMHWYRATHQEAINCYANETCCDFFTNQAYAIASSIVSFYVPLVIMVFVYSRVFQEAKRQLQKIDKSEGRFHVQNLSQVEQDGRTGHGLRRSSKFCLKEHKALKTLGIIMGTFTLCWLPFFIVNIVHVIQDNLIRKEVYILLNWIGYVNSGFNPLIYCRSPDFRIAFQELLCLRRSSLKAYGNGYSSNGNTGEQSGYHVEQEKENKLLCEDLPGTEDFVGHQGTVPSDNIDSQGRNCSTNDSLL
hERG (KV11.1) channel, sequence (Q12809 whole entry): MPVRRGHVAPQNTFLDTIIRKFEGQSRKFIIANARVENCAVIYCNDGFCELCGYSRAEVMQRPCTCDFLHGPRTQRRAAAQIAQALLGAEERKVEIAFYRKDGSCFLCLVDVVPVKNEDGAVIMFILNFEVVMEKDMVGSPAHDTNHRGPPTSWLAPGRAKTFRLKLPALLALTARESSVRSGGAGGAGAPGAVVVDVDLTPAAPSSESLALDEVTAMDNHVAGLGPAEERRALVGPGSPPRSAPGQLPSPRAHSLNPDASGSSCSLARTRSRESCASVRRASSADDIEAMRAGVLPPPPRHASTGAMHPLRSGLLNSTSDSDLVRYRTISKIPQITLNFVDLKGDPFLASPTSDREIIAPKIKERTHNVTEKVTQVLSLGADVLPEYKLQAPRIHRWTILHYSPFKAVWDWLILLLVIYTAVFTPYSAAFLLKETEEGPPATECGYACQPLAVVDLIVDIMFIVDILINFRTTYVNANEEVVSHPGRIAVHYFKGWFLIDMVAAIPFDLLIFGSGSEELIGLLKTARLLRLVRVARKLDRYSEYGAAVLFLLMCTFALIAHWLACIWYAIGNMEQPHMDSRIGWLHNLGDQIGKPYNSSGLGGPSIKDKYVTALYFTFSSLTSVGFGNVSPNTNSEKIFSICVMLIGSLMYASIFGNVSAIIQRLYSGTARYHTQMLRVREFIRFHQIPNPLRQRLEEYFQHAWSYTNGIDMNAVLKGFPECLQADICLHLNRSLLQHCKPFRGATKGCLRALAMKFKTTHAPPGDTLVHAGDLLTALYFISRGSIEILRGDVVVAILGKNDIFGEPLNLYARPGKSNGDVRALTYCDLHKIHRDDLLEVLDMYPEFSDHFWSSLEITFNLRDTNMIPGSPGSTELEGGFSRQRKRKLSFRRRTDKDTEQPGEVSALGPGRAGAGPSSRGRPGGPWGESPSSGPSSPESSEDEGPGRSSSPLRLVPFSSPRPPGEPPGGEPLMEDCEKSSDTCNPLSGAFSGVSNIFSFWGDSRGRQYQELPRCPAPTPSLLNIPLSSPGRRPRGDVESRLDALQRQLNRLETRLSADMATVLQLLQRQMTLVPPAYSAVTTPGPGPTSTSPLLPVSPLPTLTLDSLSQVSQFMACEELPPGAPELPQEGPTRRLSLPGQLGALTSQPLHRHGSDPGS
α1A, sequence (P35348 whole entry): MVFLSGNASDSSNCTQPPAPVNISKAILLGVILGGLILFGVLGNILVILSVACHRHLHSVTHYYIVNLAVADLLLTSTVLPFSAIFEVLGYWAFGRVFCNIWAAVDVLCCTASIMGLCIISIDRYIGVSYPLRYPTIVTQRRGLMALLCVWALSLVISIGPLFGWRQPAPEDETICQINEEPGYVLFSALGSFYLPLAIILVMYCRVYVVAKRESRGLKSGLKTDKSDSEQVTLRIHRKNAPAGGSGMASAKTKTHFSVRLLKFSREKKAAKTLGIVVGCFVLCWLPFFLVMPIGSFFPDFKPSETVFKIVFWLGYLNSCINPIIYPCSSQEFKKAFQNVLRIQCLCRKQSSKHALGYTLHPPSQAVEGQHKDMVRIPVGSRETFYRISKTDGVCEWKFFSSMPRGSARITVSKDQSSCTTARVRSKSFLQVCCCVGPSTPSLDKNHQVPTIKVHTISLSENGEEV
D3, sequence (P35462 whole entry): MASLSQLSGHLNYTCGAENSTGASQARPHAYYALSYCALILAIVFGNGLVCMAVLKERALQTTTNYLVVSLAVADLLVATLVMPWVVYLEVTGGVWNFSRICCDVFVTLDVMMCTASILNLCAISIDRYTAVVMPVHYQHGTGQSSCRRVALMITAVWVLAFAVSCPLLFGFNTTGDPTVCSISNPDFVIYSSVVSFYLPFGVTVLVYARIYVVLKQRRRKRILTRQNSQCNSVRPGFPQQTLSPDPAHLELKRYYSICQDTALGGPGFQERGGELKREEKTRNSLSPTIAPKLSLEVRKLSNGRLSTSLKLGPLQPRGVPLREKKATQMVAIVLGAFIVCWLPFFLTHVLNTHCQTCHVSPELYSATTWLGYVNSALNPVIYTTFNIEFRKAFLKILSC

CCN(CC)C(=O)[C@@H]1C=C2c3cccc4[nH]c(Br)c(c34)C[C@H]2N(C)C1.CCN(CC)C(=O)[C@@H]1C=C2c3cccc4[nH]c(Br)c(c34)C[C@H]2N(C)C1.O=C(O)C(O)C(O)C(=O)O [2-Br-LSD, (6aR,9R)-2-bromolysergic acid diethylamide (2:1) (+)-tartrate]
Kb (α1A): 43 nM
5-HT2B agonist activity (5-HT2B; Gq dissociation, β-arrestin2 recruitment, Gq-mediated calcium flux): failed to induce
5-HT2B antagonist activity (5-HT2B; vs 5-HT): potent antagonist activity
activity at 5-HT7a (5-HT7a [1]): act as antagonists
level in the brain ([2]; 4 h post-dosing): below the lower limit of detection
plasma concentrations, male compared to female mice ([2]; IP): 2–5 x
mean plasma Cmax ([2]; females): 826.06 ng/mL
mean plasma Cmax ([2]; males): 1558.74 ng/mL
mean terminal T1/2, plasma ([2]; IP, female mice): 54 to 156 min
mean T1/2 in the brain ([2]; IP, females): 24 to 78 min
mean brain Tmax ([2]; IP, male and female mice): 10.2 min
mean terminal T1/2, plasma ([2]; IP, male mice): 72 to 84 min
mean T1/2 in the brain ([2]; IP, males): 42 to 60 min
plasma Tmax ([2]; IP, all groups except male mice at 0.75 mg/kg): 12 min
plasma Tmax ([2]; IP, male mice, 0.75 mg/kg): 30 min
Cmax ([2]; females): 2100 nM
Cmax ([2]; males): 3900 nM
agonism or antagonism at the rest of the histamine and muscarinic GPCRs [3]: neither 2-Br-LSD nor LSD possessed weak agonism or antagonism
EC50 (5-HT7a [4]): 5.1 nM
EC50 (D4): 1.2 nM
side effects in cluster headache patients ([5]; 30 μg/kg orally on three occasions): only minor side effects
efficacy against cluster headaches [5]: showed efficacy against cluster headaches
subjective effects in humans ([5]; intravenous infusion of 18–22 μg/kg): more intense effects
subjective effects in humans ([5]; oral doses 64–256 μg/kg): mild subjective responses
EMAX (D3): 32%
IC50 (hERG (KV11.1) channel): 31600 nM
EC50 (D2): 0.35 nM
EMAX (5-HT2A [6]): 36.9%
activity at 5-HT4 (5-HT4): lack potent agonist or antagonist activity
Kb (β2): 47 nM
EC50 (α2C): 10.4 nM
EMAX (α2C; partial agonism): 40.5%
locomotion (distance travelled) (Open field test; 0.3, 1, 3 mg/kg IP, females and males): neither females nor males showed a significant increase in locomotion
increase in time in the arena center (Open field test; female mice, 1 mg/kg IP): 88.18 ± 18.89 s
increased exploration of the open field center (Open field test; male mice): not significant
EC50 (5-HT2A [7]): 0.81 nM
EMAX (5-HT2A [7]; normalized to 5-HT): 59.8%
agonism at D1/5 subtypes (D1/5 subtypes): lacks strong agonism
Kb (5-HT5A): 4.14 nM
self-grooming time in CVS mice [8]: partial reversal of CVS effects
spine density (rat cortical neurons [9]): spine density increased
time-course of blockade of the response to DOI (HTR induced by DOI; 1 mg/kg IP pre-treatment): almost completely blocked during the first 10 minutes
attenuation of the response to DOI (HTR induced by DOI; 3 mg/kg IP pre-treatment, 30 min): 76%
5-HT2A internalization (loss of surface expression) (5-HT2A [10]): partial agonist effect
agonism at H2 (H2): weak partial agonism
neuronal viability [11]: not different from control neurons
EC50 (Nav1.5 sodium channels): 1100 nM
average spine density in PFC (PFC pyramidal neurons): significant increase in average spine density
EC50 (5-HT6): 0.35 nM
β-arrestin2 recruitment agonism (5-HT1A): no detectable β-arrestin2 recruitment agonism
Kb (α1B): 38 nM
decrease in immobility (Forced swim test; females, 1 mg/kg IP): 35.18 ± 10.03 s
decrease in immobility (Forced swim test; males, 0.3 mg/kg IP): 20.89 ± 8.249 s
decrease in immobility (Forced swim test; males, 1 mg/kg IP): 27.27 ± 8.226 s
decrease in immobility (Forced swim test; males, 3 mg/kg IP): 31.36 ± 8.226 s
EMAX (5-HT2C): 45.8%
IC50 (OCT2): 500 nM
total length of the dendritic arbor (rat cortical neurons [12]; 1 and 10 μM, 3 h at DIV3): increased the total length of the dendritic arbor
number of dendrites crossing the Sholl radii (rat cortical neurons [12]; 3 h treatment DIV3, read DIV6, maximal at 1 and 10 μM): dose-dependent increase
induction of the HTR (head-twitch response; 0.1–10 mg/kg IP, male C57BL/6J mice, 60 min): did not induce the HTR
induction of the HTR after S-(–)-raclopride pretreatment (head-twitch response; raclopride 1 mg/kg, then 2-Br-LSD 3 mg/kg): did not induce the HTR
